The target of one test is T1, c-Met in PC3 cells (Homo sapiens, UniProt P08581).
T1 construct: host or cells: PC3 cells
Nature of the test: c-Met cell-based autophosphorylation assay, PC3 cells. The conditions noted are these: HGF-stimulated. Here is the method:
c-Met Cell-Based Autophosphorylation Assay
Human PC3 and mouse CT26 cells are available obtained from ATCC. The cells were cultured in a growth medium containing RPMI 1640, penicillin/streptomycin/glutamine (1×) and 5% FBS. 2×10^4 cells in medium were plated per well in a 96 well plate and incubated at 37° C. overnight. The cells were serum-starved by replacing the growth media with basic medium (DMEM low glucose+0.1 BSA, 120 μL per well) at 37° C. for 16 h. Compounds (either 1 mM and 0.2 mM) in 100% DMSO were serially diluted (1:3) 3333 fold on a 96 well plate, diluting 1:3 with DMSO from column 1 to 11 (columns 6 and 12 receive no compound). Compound samples (2.4 μL per well) were diluted with basic medium (240 μL) in a 96 well plate. The cells were washed once with basic medium (GIBCO, DMEM 11885-076) then compound solution was added (100 μL). The cells were incubated at 37° C. for 1 h. A (2 mg/mL) solution of CHO-HGF (7.5 μL) was diluted with 30 mL basic medium to provide a final concentration of 500 ng/mL. This HGF-containing media (120 μL) was transferred to a 96 well plate. Compounds (1.2 μL) was added to the HGF-containing media and mixed well. The mixture of media/HGF/compound (100 μL) was added to the cells (final HGF concentration—250 ng/mL) then incubated at 37° C. for 10 min. A cell lysate buffer (20 mL) was prepared containing 1% Triton X-100, 50 mM Tris pH 8.0, 100 mM NaCl, Protease inhibitor (Sigma, #P-8340) 200 μL, Roche Protease inhibitor (Complete, # 1-697-498) 2 tablets, Phosphatase Inhibitor II (Sigma, #P-5726) 200 μL, and a sodium vanadate solution (containing 900 μL PBS, 100 μL 300 mM NaVO3, 6 μl H2O2 (30% stock) and stirred at RT for 15 min) (90 μL). The cells were washed once with ice cold 1×PBS (GIBCO, #14190-136), then lysis buffer (60 μL) was added and the cells were incubated on ice for 20 min.
The IGEN assay was performed as follows: Dynabeads M-280 streptavidin beads were pre-incubated with biotinylated anti-human HGFR (240 μL anti-human-HGFR (R&D system, BAF527 or BAF328) @ 100 μg/mL+360 μL Beads (IGEN #10029+5.4 μL buffer−PBS/1% BSA/0.1% Tween20) by rotating for 30 min at RT. Antibody beads (25 μL) were transferred to a 96 well plate. Cell lysate solution (25 μL) was transferred added and the plate was shaken at RT for 1 h. Anti-phosphotyrosine 4G10 (Upstate 05-321) (19.7 μL antibody+6 mL 1×PBS) (12.5 μL) was added to each well, then incubated for 1 h at RT. Anti-mouse IgG ORI-Tag (ORIGEN #110087) (24 μL Antibody+6 mL buffer) (12.5 μL) was added to each well, then incubated at RT for 30 min. 1×PBS (175 μL) was added to each well and the electrochemiluminescence was read by an IGEN M8. Raw data was analyzed using a 4-parameter fit equation in XLFit. IC50 values are then determined using Grafit software.

For test [1], the system named is Human Umbilical Vein Endothelial cells. The test can be described thus: HUVEC proliferation assay (VEGF-stimulated). In kind it is cell-based. The conditions noted are these: read-out: inhibition of VEGF-stimulated HUVEC proliferation, level. Here is the method:
HUVEC Proliferation Assay
Human Umbilical Vein Endothelial cells are purchased from Clonetics, Inc., as cryopreserved cells harvested from a pool of donors. These cells, at passage 1, are thawed and expanded in EBM-2 complete medium, until passage 2 or 3. The cells are trypsinized, washed in DMEM+10% FBS+antibiotics, and spun at 1000 rpm for 10 min. Prior to centrifugation of the cells, a small amount is collected for a cell count. After centrifugation, the medium is discarded, and the cells are resuspended in the appropriate volume of DMEM+10% FBS+antibiotics to achieve a concentration of 3×10^5 cells/mL. Another cell count is performed to confirm the cell concentration. The cells are diluted to 3×10^4 cells/mL in DMEM+10% FBS+antibiotics, and 100 μL of cells are added to a 96-well plate. The cells are incubated at 37° C. for 22 h.
Prior to the completion of the incubation period, compound dilutions are prepared. Five-point, five-fold serial dilutions are prepared in DMSO, at concentrations 400-fold greater than the final concentrations desired. 2.5 μL of each compound dilution are diluted further in a total of 1 mL DMEM+10% FBS+antibiotics (400× dilution). Medium containing 0.25% DMSO is also prepared for the […]. At the 22 h timepoint, the medium is removed from the cells, and 100 μL of each compound dilution is added. The cells are incubated at 37° C. for 2-3 h.
During the compound pre-incubation period, the growth factors are diluted to the appropriate concentrations. Solutions of DMEM+10% FBS+antibiotics, containing either VEGF or bFGF at the following concentrations: 50, 10, 2, 0.4, 0.08, and 0 ng/mL are prepared. For the compound-treated cells, solutions of VEGF at 550 ng/mL or bFGF at 220 ng/mL for 50 ng/mL or 20 ng/mL final concentrations, respectively, are prepared since 10 μL of each will be added to the cells (110 μL final volume). At the appropriate time after adding the compounds, the growth factors are added. VEGF is added to one set of plates, while bFGF is added to another set of plates. For the growth factor control curves, the media on wells B4-G6 of plates 1 and 2 are replaced with media containing VEGF or bFGF at the varying concentrations (50-0 ng/mL). The cells are incubated at 37° C. for an additional 72 h.
At the completion of the 72 h incubation period, the medium is removed, and the cells are washed twice with PBS. After the second wash with PBS, the plates are tapped gently to remove excess PBS, and the cells are placed at −70° C. for at least 30 min. The cells are thawed and analyzed using the CyQuant fluorescent dye (Molecular Probes C-7026), following the manufacturer's recommendations. The plates are read on a Victor/Wallac 1420 workstation at 485 nm/530 nm (excitation/emission). Raw data are collected and analyzed using a 4-parameter fit equation in XLFit. IC50 values are then determined.

A value given as a limit tells only on which side of the number the result lay.

Among the data in US7626030B2, “Compounds and methods of use” (Amgen Inc., priority 2004, dated 2009) are IC50 values, retold here.

T1 sequence (P08581 25-1390): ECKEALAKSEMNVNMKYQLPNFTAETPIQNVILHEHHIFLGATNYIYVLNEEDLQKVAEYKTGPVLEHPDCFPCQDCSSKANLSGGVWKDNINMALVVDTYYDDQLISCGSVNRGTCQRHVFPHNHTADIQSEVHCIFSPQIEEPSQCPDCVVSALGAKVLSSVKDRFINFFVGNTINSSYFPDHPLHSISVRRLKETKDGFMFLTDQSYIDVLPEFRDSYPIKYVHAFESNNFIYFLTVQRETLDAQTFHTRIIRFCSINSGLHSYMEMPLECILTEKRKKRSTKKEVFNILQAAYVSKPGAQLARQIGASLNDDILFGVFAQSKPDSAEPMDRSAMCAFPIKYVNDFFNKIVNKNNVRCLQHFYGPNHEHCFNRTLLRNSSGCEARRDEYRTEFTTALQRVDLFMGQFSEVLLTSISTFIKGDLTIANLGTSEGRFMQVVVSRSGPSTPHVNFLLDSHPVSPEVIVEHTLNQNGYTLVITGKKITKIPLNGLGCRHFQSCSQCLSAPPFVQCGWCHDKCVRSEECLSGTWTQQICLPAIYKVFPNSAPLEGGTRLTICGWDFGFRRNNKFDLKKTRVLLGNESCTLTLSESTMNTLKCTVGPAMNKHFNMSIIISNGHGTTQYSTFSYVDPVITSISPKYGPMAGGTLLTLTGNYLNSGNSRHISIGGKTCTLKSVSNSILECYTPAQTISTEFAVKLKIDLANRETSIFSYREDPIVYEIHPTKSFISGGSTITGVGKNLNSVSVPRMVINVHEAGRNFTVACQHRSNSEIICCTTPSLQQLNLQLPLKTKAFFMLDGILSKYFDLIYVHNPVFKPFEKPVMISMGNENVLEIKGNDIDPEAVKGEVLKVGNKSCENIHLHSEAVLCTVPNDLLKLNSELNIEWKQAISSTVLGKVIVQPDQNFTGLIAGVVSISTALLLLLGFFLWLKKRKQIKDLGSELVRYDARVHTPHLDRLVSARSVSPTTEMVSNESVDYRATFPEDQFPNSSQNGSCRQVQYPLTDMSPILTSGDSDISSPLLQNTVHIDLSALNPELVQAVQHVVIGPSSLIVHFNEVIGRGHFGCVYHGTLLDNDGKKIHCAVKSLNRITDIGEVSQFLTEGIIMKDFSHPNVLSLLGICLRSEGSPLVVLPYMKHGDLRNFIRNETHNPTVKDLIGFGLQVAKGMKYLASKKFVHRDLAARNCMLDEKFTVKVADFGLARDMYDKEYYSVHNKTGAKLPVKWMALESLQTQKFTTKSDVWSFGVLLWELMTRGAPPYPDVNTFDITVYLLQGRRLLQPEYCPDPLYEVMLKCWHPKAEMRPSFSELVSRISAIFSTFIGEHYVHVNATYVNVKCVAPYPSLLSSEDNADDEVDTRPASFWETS

Regarding `COc1cc2nccc(Oc3ccc4nc(NC(=O)c5ccsc5)sc4c3)c2cc1OC` [Example 46, Thiophene-3-carboxylic acid [6-(6,7-dimethoxy-quinolin-4-yloxy)-benzothiazol-2-yl]-amide], the IC50 on c-Met in PC3 cells is under 1000 nM. `Cc1cc(Oc2ccc3nc(NC(=O)Cc4ccccc4)sc3c2)ccn1` [Example 82, N-[6-(2-Methyl-pyridin-4-yloxy)-benzothiazol-2-yl]-2-phenyl-acetamide] had an IC50 on c-Met in PC3 cells of under 1000 nM. Still for that read-out and setting: the value for `COc1cc2nccc(Oc3ccc4oc(Nc5ccc(Cl)cc5)nc4c3)c2cc1OC` [Example 96, 5-((6,7-bis(methoxy)-4-quinolinyl)oxy)-N-(4-chlorophenyl)-1,3-benzoxazol-2-amine] was under 1000 nM; that for `COc1cc2c(Oc3ccc4nc(NC(=O)c5ccccc5)sc4c3)ccnc2cc1OCCCN(C)C` [Example 102, N-(6-((7-((3-(dimethylamino)propyl)oxy)-6-(methoxy)-4-quinolinyl)oxy)-1,3-benzothiazol-2-yl)benzamide] was under 1000 nM. Same read-out and setting: the value for `COc1cc2c(Oc3ccc4nc(NC(=O)c5ccsc5)sc4c3)ccnc2cc1OCCCN1CCOCC1` [Example 104, N-(6-((6-(methoxy)-7-((3-(4-morpholinyl)propyl)oxy)-4-quinolinyl)oxy)-1,3-benzothiazol-2-yl)-1-3-thiohenecarboxamide] was under 1000 nM. Regarding `COc1ccc(C(=O)Nc2nn(C)c3cc(Oc4ccnc5cc(OC)c(OC)cc45)ccc23)cc1` [Example 132, N-(6-((6,7-bis(methyloxy)-4-quinolinyl)oxy)-1-methyl-1H-indazol-3-yl)-4-(methyloxy)benzamide], the IC50 in test [1] was under 500 nM.

As for `COc1cc2nccc(Oc3ccc4c(NC(=O)c5ccc(Cl)cc5)nn(C)c4c3)c2cc1OC` [Example 134, N-(6-((6,7-bis(methoxy)-4-quinolinyl)oxy)-1-methyl-1H-indazol-3-yl)-4-chlorobenzamide], the IC50 in test [1] was under 500 nM. The same measure, in the same setting: the value for `COc1cc2nccc(Oc3ccc4c(NC(=O)c5ccc(C(F)(F)F)cc5)nn(C)c4c3)c2cc1OC` [Example 135, N-(6-((6,7-bis(methoxy)-4-quinolinyl)oxy)-1-methyl-1H-indazol-3-yl)-4-(trifluoromethyl)benzamide] was under 500 nM.

Take `COc1cc2nccc(Oc3ccc4c(NC(=O)c5ccc(F)c(Cl)c5)nn(C)c4c3)c2cc1OC` [Example 137, N-(6-((6,7-bis(methoxy)-4-quinolinyl)oxy)-1-methyl-1H-indazol-3-yl)-3-chloro-4-fluorobenzamide]: in test [1], the IC50 was under 500 nM.

In the case of `COc1cc2nccc(Oc3ccc4c(NC(=O)c5cc(C(F)(F)F)cc(C(F)(F)F)c5)nn(C)c4c3)c2cc1OC` [Example 138, N-(6-((6,7-bis(methoxy)-4-quinolinyl)oxy)-1-methyl-1H-indazol-3-yl)-3,5-bis(trifluoromethyl)benzamide], in test [1], the IC50 is under 500 nM. On the same count and under the same terms, the value for `COc1cc2nccc(Oc3ccc4c(NC(=O)c5cccc(C)c5)nn(C)c4c3)c2cc1OC` [Example 139, N-(6-((6,7-bis(methoxy)-4-quinolinyl)oxy)-1-methyl-1H-indazol-3-yl)-3-methylbenzamide] was under 500 nM. `COc1cc2nccc(Oc3ccc4c(NC(=O)c5cc(Cl)ccn5)nn(C)c4c3)c2cc1OC` [Example 140, N-(6-((6,7-bis(methoxy)-4-quinolinyl)oxy)-1-methyl-1H-indazol-3-yl)-4-chloro-2-pyridinecarboxamide]: the IC50 in test [1] is under 500 nM. Still for that read-out and setting: the value for `COc1cc2nccc(Oc3ccc4c(NC(=O)Nc5ccc(C)cc5)nn(C)c4c3)c2cc1OC` [Example 142, N-(6-((6,7-bis(methoxy)quinolinyl)oxy)-1-methyl-1H-indazol-3-yl)-N′-(4-methylphenyl)urea] was under 500 nM. Consider `COc1cc2nccc(Oc3ccc4c(NC(=O)Nc5ccccc5)nn(C)c4c3)c2cc1OC` [Example 144, N-(6-((6,7-bis(methoxy)-4-quinolinyl)oxy)-1-methyl-1H-indazol-3-yl)-N′-phenylurea], for which the IC50 in test [1] is under 500 nM. With `COc1ccc(NC(=O)Nc2nn(C)c3cc(Oc4ccnc5cc(OC)c(OC)cc45)ccc23)cc1` [Example 145, N-(6-((6,7-bis(methoxy)-4-quinolinyl)oxy)-1-methyl-1H-indazol-3-yl)-N′-(4-(methyloxy)phenyl)urea], the IC50 in test [1] was under 500 nM.
